# From US8871767B2, “2-arylimidazo[1,2-B]pyridazine, 2-phenylimidazo[1,2-A]pyridine, and 2-phenylimidazo[1,2-A]pyrazine derivatives” (Hengrui (USA) Ltd., priority 2010, dated 2014)
# pIC50: −log10 of the molar value. Like-named read-outs stand apart in the source and are kept apart here.
# Key:
# [1] = system: Hedgehog pathway activation on 10T1/2/Smo#3 cells (C3H10T1/2 cells transfected with human Smoothened receptor); assay: Hedgehog pathway activation on 10T1/2/Smo#3 cells measured by ALP activity; type: cell-based
# Summary of the method: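 Inhibition of alkaline phosphatase induction, read fluorometrically from 4-methylumbelliferyl phosphate conversion, gave IC50 values; CellTiter-Blue tracked viability in parallel. Cells were the human Smo-transfected 10T1/2/Smo#3 pool, stimulated by 10-20% hShh conditioned medium or the Smo agonist SAG (500 nM).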
# [2] = system: Hedgehog pathway activation (GLi-luciferase reporter) in Shh Light II reporter cells; assay: Hedgehog pathway activation on Shh Light II reporter cells measured by luciferase activity; type: cell-based
# Summary of the method: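 Shh Light II reporter cells carrying a hedgehog-responsive GLi-luciferase reporter were stimulated either with 500 nM SAG, a direct Smoothened agonist, or with conditioned media containing human Sonic Hedgehog (hShh). Test compounds were evaluated for blocking this pathway activation, quantified by luciferase activity. Cell viability was monitored in parallel with the Celltiter-Blue® assay.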
# [3] = Mus musculus, C3H 10T1/2, 10T1/2/Smo#3 cells, measured by ALP activity, read-out: ALP (IC50, inhibition of Hedgehog pathway activation)
# [4] = Mus musculus, Shh Light II, hShh activation, read-out: Shh (IC50, inhibition of Hedgehog pathway activation)
# [5] = Mus musculus, C3H 10T1/2, 10T1/2/Smo#3 cells, hShh activation, ALP activity, read-out: 10T1/2/Smo#3 ALP activity (hShh Activation)
# [6] = Mus musculus, Shh Light II, SAG activation (500 nM SAG), read-out: Shh Light II luciferase activity (SAG activation)
# [7] = Mus musculus, Shh Light II, hShh activation, read-out: Shh Light II luciferase activity (hShh activation)
SMILES,"pIC50 [1, 3]","pIC50 [2, 4]","pIC50 [1, 5]","pIC50 [2, 6]","pIC50 [2, 7]","pIC50 ([1]; 10T1/2/Smo#3 cells, measured by ALP activity, read-out: ALP (IC50, inhibition of Hedgehog pathway activation))","pIC50 ([2]; hShh activation, read-out: Shh (IC50, inhibition of Hedgehog pathway activation))"
"CCOC(=O)Nc1cc(-c2cn3nc(-c4cccnc4C(F)(F)F)ccc3n2)ccc1Cl [Example 673, ethyl 2-chloro-5-(6-(2-(trifluoromethyl)pyridin-3-yl)imidazo[1,2-b]pyridazin-2-yl)phenylcarbamate]",6.17,6.77,–,–,–,–,–
"Fc1ccc(CN2CCN(c3ccc4nc(-c5ccc(F)cc5)c(C5CC5)n4n3)CC2)cc1 [Example 167, 3-cyclopropyl-6-(4-(4-fluorobenzyl)piperazin-1-yl)-2-(4-fluorophenyl)imidazo[1,2-b]pyridazine]",< 5.00,5.64,–,–,–,–,–
"Cc1ccc(-c2cn3nc(-c4cc(C#N)ccc4F)ccc3n2)cc1NC(=O)C(C)(C)C [Example 274, N-(5-(6-(5-cyano-2-fluorophenyl)imidazo[1,2-b]pyridazin-2-yl)-2-methylphenyl)pivalamide]",7.70,6.84,–,–,–,–,–
Cc1ccc(-c2cn3nc(-c4ccc(C(=O)O)cc4Cl)ccc3n2)cc1NC(=O)C(C)(C)C [compound 540],6.05,6.35,–,–,–,–,–
"CCN[C@H]1CCN(c2ccc3nc(-c4ccc(C)c(NC(=O)C(C)(C)C)c4)cn3n2)C1 [Example 394, (S)-N-(5-(6-(3-(ethylamino)pyrrolidin-1-yl)imidazo[1,2-b]pyridazin-2-yl)-2-methylphenyl)pivalamide]",6.72,7.39,–,–,–,–,–
"Cc1c(-c2ccccc2)nc2ccc(N3CCN(Cc4ccc(OC(F)(F)F)cc4)CC3)nn12 [Example 166, 3-methyl-2-phenyl-6-(4-(4-(trifluoromethoxy)benzyl)piperazin-1-yl)imidazo[1,2-b]pyridazine]",5.71,6.00,–,–,–,–,–
"CC(C)(C)C(=O)Nc1cc(-c2cn3nc(C(N)=O)ccc3n2)ccc1C(F)(F)F [Example 180, 2-(3-pivalamido-4-(trifluoromethyl)phenyl)imidazo[1,2-b]pyridazine-6-carboxamide]",5.24,5.41,4.52 to 5.52,4.52 to 5.52,4.52 to 5.52,–,–
Cc1ccc(-c2cn3nc(-c4cc(C#N)ccc4Cl)ccc3n2)cc1NC(=O)C(C)(C)C [compound 565],7.21,8.05,–,–,–,–,–
"CC(=O)NC1CCN(c2ccc3nc(-c4ccc(C)c(NC(=O)C(C)(C)C)c4)cn3n2)C1 (centres unmarked) [Example 362, N-(5-(6-(3-acetamidopyrrolidin-1-yl)imidazo[1,2-b]pyridazin-2-yl)-2-methylphenyl)pivalamide]",6.81,6.98,–,–,–,–,–
"CN(C)c1ncc(-c2ccc3nc(-c4ccc(C(F)(F)F)c(NC(=O)C(C)(C)C)c4)cn3n2)cn1 [Example 378, N-(5-(6-(2-(dimethylamino)pyrimidin-5-yl)imidazo[1,2-b]pyridazin-2-yl)-2-(trifluoromethyl)phenyl)pivalamide]",6.02,5.81,–,–,–,–,–
"Cc1ccc(-c2cn3nc(-c4ccccc4F)ccc3n2)cc1NC(=O)C(C)(C)C [Example 220, N-(5-(6-(2-fluorophenyl)imidazo[1,2-b]pyridazin-2-yl)-2-methylphenyl)pivalamide]",7.55,7.28,–,–,–,–,–
"Cc1ccc(-c2cn3nc(-c4cccnc4C)ccc3n2)cc1NC(=O)C(C)(C)C [Example 278, N-(2-methyl-5-(6-(2-methylpyridin-3-yl)imidazo[1,2-b]pyridazin-2-yl)phenyl)pivalamide]",6.64,6.79,–,–,–,–,–
"CCOc1ccc2nc(-c3ccc(C(F)(F)F)c(S(=O)(=O)NC4CCCCC4)c3)cn2n1 [Example 214, N-cyclohexyl-5-(6-ethoxyimidazo[1,2-b]pyridazin-2-yl)-2-(trifluoromethyl)benzenesulfonamide]",5.80,< 5.00,–,–,–,–,–
"CC(C)(C)C(=O)Nc1cc(-c2cn3nc(-c4cccnc4C(F)(F)F)ccc3n2)c(F)cc1F [Example 652, N-(2,4-difluoro-5-(6-(2-(trifluoromethyl)pyridin-3-yl)imidazo[1,2-b]pyridazin-2-yl)phenyl)pivalamide]",7.44,7.47,–,–,–,–,–
"CCC(C)(C)C(=O)Nc1cc(-c2cn3nc(-c4cccnc4C(F)(F)F)ccc3n2)c(F)cc1Cl [Example 659, N-(2-chloro-4-fluoro-5-(6-(2-(trifluoromethyl)pyridin-3-yl)imidazo[1,2-b]pyridazin-2-yl)phenyl)-2,2-dimethylbutanamide]",7.12,7.66,–,–,–,–,–
"Cc1c(-c2ccccc2)nc2ccc(N3CCN(Cc4cccc(C(F)(F)F)c4)CC3)nn12 [Example 165, 3-methyl-2-phenyl-6-(4-(3-(trifluoromethyl)benzyl)piperazin-1-yl)imidazo[1,2-b]pyridazine]",< 5.00,6.05,–,–,–,–,–
"CCOc1ccc2nc(-c3ccc(C(F)(F)F)c(Br)c3)cn2n1 [Example 204, 2-(3-bromo-4-(trifluoromethyl)phenyl)-6-ethoxyimidazo[1,2-b]pyridazine]",5.02,< 5.00,4.52 to 5.52,4.52 to 5.52,4.52 to 5.52,–,–
"Cc1ccc(-c2cn3nc(-c4cccnc4C(F)(F)F)ccc3n2)cc1NC(=O)CCCCCCC(=O)NO [Example 429, N^1-hydroxy-N^8-(2-methyl-5-(6-(2-(trifluoromethyl)pyridin-3-yl)imidazo[1,2-b]pyridazin-2-yl)phenyl)octanediamide]",5.89,6.78,5.52 to 6.52,5.52 to 6.52,4.52 to 5.52,–,–
CC(=O)c1ccc(F)c(-c2ccc3nc(-c4ccc(C)c(NC(=O)C(C)(C)C)c4)cn3n2)c1 [compound 529],6.94,6.71,> 6.52,5.52 to 6.52,> 6.52,–,–
"CNC1CCN(c2ccc3nc(-c4ccc(C)c(NC(=O)C(C)(C)C)c4)cn3n2)C1 (centres unmarked) [Example 360, N-(2-methyl-5-(6-(3-(methylamino)pyrrolidin-1-yl)imidazo[1,2-b]pyridazin-2-yl)phenyl)pivalamide]",–,–,–,–,–,7.49,7.59
"CC(C)(C)C(=O)Nc1cc(-c2cn3nc(-c4cccc(O)c4)ccc3n2)ccc1C(F)(F)F [Example 242, N-(5-(6-(3-hydroxyphenyl)imidazo[1,2-b]pyridazin-2-yl)-2-(trifluoromethyl)phenyl)pivalamide]",6.35,6.40,–,–,–,–,–
Cc1ccc(-c2cn3nc(-c4ccc(C#N)cc4F)ccc3n2)cc1NC(=O)C(C)(C)C [compound 545],6.35,7.09,–,–,–,–,–
"CC(C)(C(=O)Nc1cc(-c2cn3nc(-c4cccnc4C(F)(F)F)ccc3n2)ccc1Cl)C(F)(F)F [Example 665, N-(2-chloro-5-(6-(2-(trifluoromethyl)pyridin-3-yl)imidazo[1,2-b]pyridazin-2-yl)phenyl)-3,3,3-trifluoro-2,2-dimethylpropanamide]",6.92,7.72,–,–,–,–,–
Cc1ccc(-c2cn3nc(NCc4ccc(C(=O)NOC5CCCCO5)cc4)ccc3n2)cc1NC(=O)C(C)(C)C (centres unmarked) [compound 600],< 5.00,6.89,–,–,–,–,–
"Cc1ccc(-c2nc3ccc(-c4cccnc4C(F)(F)F)nn3c2C)cc1NC(=O)C(C)(C)C [Example 353, N-(2-methyl-5-(3-methyl-6-(2-(trifluoromethyl)pyridin-3-yl)imidazo[1,2-b]pyridazin-2-yl)phenyl)pivalamide]",7.25,7.13,–,–,–,–,–
